Experimental data published in patent US11904052B2, “Methods for ameliorating infusion reactions” (ARBUTUS BIOPHARMA CORPORATION, priority 2016, dated 2024).
“Also recorded” adds a separate entry of the source.

Assays:
thromboxane B2 = assay: Plasma thromboxane B2 after LNP2 infusion in the conscious minipig; assay type: in vivo, Gottingen minipigs; details: iv bolus 10 minutes prior to LNP2 infusion; ketorolac 1 mg/kg, dexamethasone 0.3 mg/kg
Source text: (§1) Four (4) treatment naïve female Gottingen minipigs (Marshall Farms, N.Y.) were surgically implanted with a D70-PCT PhysioTel implantable radiotelemetry transmitter (Data Sciences International, St. Paul, Minn.) to allow for the measurement of physical activity, body temperature, ECG, heart rate, and arterial blood pressure. The pigs were allowed to recover from surgery for at least 7 days prior to use in the study.
(§2) Following surgical recovery, the same four pigs (15-20 kg) received a 60-minute intravenous infusion of vehicle (0.9% saline), LNP2, LNP2+ketorolac, or LNP2+dexamethasone as outlined in the Table 1. Each treatment cohort was separated by a 7-day washout period.
(§3) Just prior to each infusion and at approximately 1, 3, 6 and 24 hours after the start of each infusion, a mixed venous blood sample was taken, processed to plasma, stored frozen, and used for subsequent analysis of thromboxane B2 (11-dehydrothromboxane B2). Heart rate and arterial blood pressure was continuously recorded from 30 minutes prior to each infusion to 24 hours after the start of each infusion.

conscious minipig = assay: Mean arterial blood pressure by radiotelemetry after LNP2 infusion in the conscious minipig; assay type: in vivo, Gottingen minipigs; details: iv bolus 10 minutes prior to LNP2 infusion; ketorolac 1 mg/kg, dexamethasone 0.3 mg/kg
Source text: as §1, §2, §3

SMILES: O=C(c1ccccc1)c1ccc2n1CCC2C(=O)O (stereo not drawn) [ketorolac]
- effect on the LNP2-induced increase in thromboxane B2 (thromboxane B2): mitigated completely
- effect on the acute infusion reaction to LNP2 (increase in blood pressure) (conscious minipig): completely prevented
- effect on the delayed hypotension after LNP2 infusion (conscious minipig): prevented; also recorded: effectively mitigated
